Data from US20140093585A1, “PARP INHIBITORS FOR THE TREATMENT OF CIPN” (AbbVie Inc., priority 2011, published 2014).
Entries after “also recorded” stand apart in the source; their conditions may differ.

Key:
PAR (pADPr) = test: PAR levels in glabrous hindpaw skin biopsies, ELISA measuring pADPr; assay type: in vivo, rats; conditions: Example 4; skin biopsies on day 12 of Example 3; Compound A 25 mg/kg and 50 mg/kg; FIG. 8
Experimental: Following behavioral testing on day 12 in Example 3, skin biopsies were taken from glabrous hindpaw skin from rats in the naïve, vincristine, and vincristine+Compound A groups (n=5 per group). PAR levels were assessed using ab ELISA assay to measure pADPr as previously described (Liu et al., 2008). PAR levels in skin were increased by vincristine, as compared to the saline group.

[1] = system: vincristine model of chemotherapy-induced pain; test: Vincristine model of chemotherapy-induced pain: mechanical threshold with von Frey monofilaments; assay type: in vivo, rats; conditions: for development of mechanical allodynia (mechanical threshold, von Frey): vincristine 30 ug/kg/day for 12 days; for reversal of mechanical allodynia (von Frey), positive control: rats receiving vincristine, morphine 6 mg/kg i.p. acutely on each day of testing
Experimental: Rats were administered a PARP Inhibitor, 2-[(2R)-2-methylpyrrolidin-2-yl]-1H-benzimidazole-4-carboxamide (Compound A) or 6-fluoro-2-(2-methylpyrrolidin-2-yl)-1H-benzimidazole-4-carboxamide (Compound B), at doses of 25 mg/kg/day or 50 mg/kg/day (i.p.), for two days prior to the initiation of vincristine. After two days or pre-dosing with the PARP inhibitor, two minipumps were implanted in rats. Vincristine was administered via a subcutaneous mini-osmotic pump that delivered 30 ug/kg/day (i.v) for twelve days. PARP Inhibitor, Compound A or Compound B, or vehicle was administered via a subcutaneous mini-osmotic pump that delivered 25 mg/kg/day, 50 mg/kg/day, or vehicle (i.p.) for twelve days. A positive control group of rats receiving vincristine were dosed acutely with morphine (6 mg/kg, i.p.) on each day of testing. A negative control group of rats received saline. Mechanical threshold was determined for all rats using von Frey monofilaments at 5, 9 and 12 days following initiation of vincristine administration (days 7, 11 and 14 of compound delivery, respectively) for Compound A, and at 3, 6 and 10 days following initiation of vincristine administration (days 5, 8 and 12 of compound delivery, respectively) for Compound B. Mechanical allodynia was observed on all testing days in rats treated with vincristine compared to the naïve group.
Rats were administered a PARP Inhibitor, 2-[(2R)-2-methylpyrrolidin-2-yl]-1H-benzimidazole-4-carboxamide (Compound A), at doses of 25 mg/kg/day or 50 mg/kg/day (i.p., bid) for two days prior to the initiation of vincristine. After two days or pre-dosing with ABT-888, two minipumps were implanted in rats. Vincristine was administered via a subcutaneous mini-osmotic pump that delivered 30 ug/kg/day (i.v) for twelve days. Compound A or vehicle was administered via a subcutaneous mini-osmotic pump that delivered 25 mg/kg/day or 50 mg/kg/day (i.p.) for twelve days. A positive control group of rats receiving vincristine were dosed with acutely morphine (6 mg/kg, i.p.) on each day of testing. A negative control group of rats received saline. Mechanical threshold was determined for all rats using von Frey monofilaments on 5, 9 and 12 days following initiation of vincristine administration (days 7, 11 and 14 of compound delivery, respectively). Mechanical allodynia was observed on all testing days in rats treated with vincristine compared to the naïve group.
Vincristine (i.v, […]) was administered by mini-pump for twelve days. Rats were divided into four groups: Group 1: Vehicle; Group 2: 1-(2-fluoro-5-((4-oxo-3,4,5,6,7,8-hexahydrophthalazin-1-yl)methyl)phenyl)pyrrolidine-2,5-dione (Compound D), 25 mg/kg/day; Group 3: Compound D, 50 mg/kg/day; Group 4: Vehicle+Positive control (morphine). Groups 2 and 3 were pretreated with their respective dose of Compound D (either 25 mg/kg or 50 mg/kg, ip) for two days prior to co-dosing with vincristine. Rats in the positive control group were dosed with vehicle by mini-pump and were acutely administered morphine on day of testing. Mechanical threshold was determined using von Frey monofilaments on days 5, 9, and 12 post-mini-pump implantation. Plasma and brain were collected on day 12. […] Anti-nociceptive efficacy was dose-dependent and observed on days 5, 9, and 12 (FIG. 10).

cisplatin model = test: Cisplatin model: behavioral assays (von Frey mechanical threshold, paw withdrawal latency from radiant heat); assay type: in vivo; conditions: mice, cisplatin cumulative 23 mg/kg, Compound C 25 or 50 mg/kg/day i.p.
Experimental: (§1) Mice were administered a PARP Inhibitor, 2-[(2S)-2-methylpyrrolidin-2-yl]-1H-benzimidazole-4-carboxamide (Compound C) at doses of 25 mg/kg/day or 50 mg/kg/day (i.p.) for two days prior to the initiation of cisplatin. The 50 mg/kg dose of Compound C was administered (i.p.) for two days prior to oxaliplatin administration. After two days of pre-dosing with the PARP Inhibitor, mice were co-administered Compound C with cisplatin or oxaliplatin for 5 days (daily injections, i.p.), followed by 5 days off, followed by 5 daily injections (i.p.). Cumulative dose of cisplatin was 23 mg/kg. Cumulative dose of oxaliplatin was 30 mg/kg. Behavioral assays were performed on all groups of mice before dosing, and then at weeks 3, 6, and 8. Behavioral assays including determining mechanical threshold with von Frey monofilaments, determining, latency to paw withdrawal from a radiant heat source, and number of paw lifts from a cold plate.

[2] = system: digital nerve SNAP amplitude, cisplatin-treated mice; test: Nerve conduction study: sensory nerve action potential (SNAP) recording from the digital nerve after cisplatin; assay type: in vivo; conditions: Example 5, cisplatin 2.3 mg/kg/day i.p., Compound C 25 or 50 mg/kg/day (i.p., bid), week 3, FIG. 9
Experimental: Mice were administered a PARP Inhibitor, 2-[(2S)-2-methylpyrrolidin-2-yl]-1H-benzimidazole-4-carboxamide (Compound C), at doses of 25 mg/kg/day or 50 mg/kg/day (i.p., bid), for two days prior to the initiation of cisplatin. After two days or pre-dosing with Compound C, mice were co-dosed with the PARP inhibitor (25 mg/kg/day or 50 mg/kg/day) and cisplatin (2.3 mg/kg/day, i.p.). The dosing regimen consisted for 5 daily co-injections, followed by 5 days off, and then a repeat of 5 daily co-injection. Nerve conduction studies were performed after the final injections in week 3. Sensory nerve action potential (SNAP) recordings were made from the digital nerve. Cisplatin induced a decrease in amplitude in SNAP recording from the digital nerve, an effect that was prevented by 2-[(2S)-2-methylpyrrolidin-2-yl]-1H-benzimidazole-4-carboxamide (Compound C) treatment (FIG. 9).

oxaliplatin model = test: Oxaliplatin model: behavioral assays (von Frey mechanical threshold, paw lifts from cold plate); assay type: in vivo; conditions: mice, oxaliplatin cumulative 30 mg/kg, Compound C 50 mg/kg i.p.
Experimental: as §1

Structure (SMILES): C[C@]1(c2nc3c(C(N)=O)cccc3[nH]2)CCCN1 [Compound A, 2-[(2R)-2-methylpyrrolidin-2-yl]-1H-benzimidazole-4-carboxamide]
- vincristine-mediated PAR activation (PAR levels) in rat glabrous skin (PAR (pADPr)): significantly reduced vincristine-mediated PAR activation; also recorded: prevention of vincristine-mediated increase in PAR levels in skin
- development of mechanical allodynia (mechanical threshold, von Frey) ([1]; Example 1, rats, Compound A 25 or 50 mg/kg/day i.p., 2 days pre-dosing then mini-pump 12 days, tested 5, 9 and 12 days after vincristine start, FIG. 1): attenuated development of mechanical allodynia; also recorded: prevention of vincristine-mediated pain
- development of mechanical allodynia (mechanical threshold, von Frey) ([1]; Example 3, rats, Compound A 25 or 50 mg/kg/day (i.p., bid pre-dosing 2 days, then mini-pump 12 days), tested days 5, 9 and 12, FIG. 7): attenuated development of mechanical allodynia; also recorded: prevention of vincristine-mediated pain

Structure (SMILES): CC1(c2nc3c(C(N)=O)cc(F)cc3[nH]2)CCCN1 (stereo not drawn) [Compound B, 6-fluoro-2-(2-methylpyrrolidin-2-yl)-1H-benzimidazole-4-carboxamide]
- development of mechanical allodynia (mechanical threshold, von Frey) ([1]; Example 1, rats, Compound B 25 or 50 mg/kg/day i.p., 2 days pre-dosing then mini-pump 12 days, tested 3, 6 and 10 days after vincristine start, FIG. 2): attenuated development of mechanical allodynia; also recorded: prevention of vincristine-mediated pain

Structure (SMILES): C[C@@]1(c2nc3c(C(N)=O)cccc3[nH]2)CCCN1 [Compound C, 2-[(2S)-2-methylpyrrolidin-2-yl]-1H-benzimidazole-4-carboxamide]
- development of mechanical allodynia (von Frey) (cisplatin model; weeks 3, 6 and 8): attenuated development of mechanical allodynia; also recorded: attenuation of cisplatin-mediated mechanical allodynia
- development of heat hyperalgesia (latency to paw withdrawal from radiant heat source) (cisplatin model; weeks 3 and 6): attenuated development of heat hyperalgesia; also recorded: attenuation of cisplatin-mediated heat hyperalgesia
- cisplatin-induced decrease in amplitude in SNAP recording from the digital nerve [2]: prevented; also recorded: prophylactic effect
- development of cold hyperalgesia (number of paw lifts from cold plate) (oxaliplatin model; week 6): attenuated development of cold hyperalgesia; also recorded: attenuation of oxaliplatin-mediated cold allodynia
- development of mechanical allodynia (von Frey) (oxaliplatin model; weeks 3 and 6): attenuated development of mechanical allodynia; also recorded: attenuation of oxaliplatin-mediated mechanical allodynia

Structure (SMILES): O=C1CCC(=O)N1c1cc(Cc2n[nH]c(=O)c3c2CCCC3)ccc1F [Compound D, 1-(2-fluoro-5-((4-oxo-3,4,5,6,7,8-hexahydrophthalazin-1-yl)methyl)phenyl)pyrrolidine-2,5-dione]
- vincristine-induced mechanical allodynia (mechanical threshold, von Frey) ([1]; Example 6, rats, vincristine i.v. by mini-pump 12 days, Compound D 25 or 50 mg/kg/day, 2 days ip pretreatment, days 5, 9 and 12 post-mini-pump implantation, FIG. 10): attenuated vincristine-induced mechanical allodynia; also recorded: dose-dependent; also recorded: prevention of vincristine-mediated pain

Structure (SMILES): CN1CC[C@]23c4c5ccc(O)c4O[C@H]2[C@@H](O)C=C[C@H]3[C@H]1C5 [Morphine, morphine, reference compound]
- reversal of mechanical allodynia (von Frey), positive control ([1]; Example 1): fully reversed mechanical allodynia on all testing days
- reversal of mechanical allodynia (von Frey), positive control ([1]; Example 3): fully reversed mechanical allodynia on all testing days
